# From patent EP2951180B1, “2,6,7,8 SUBSTITUTED PURINES AS HDM2 INHIBITORS” (Merck Sharp & Dohme Corp., priority 2013, dated 2014)
# Molecular target: T1, HDM2 (Homo sapiens, UniProt Q00987)
# T1 construct: Thioredoxin (N); made in house; host or cells: E. coli strain BL21(DE3)Rosetta
# Assay: FRET assay (HDM2 inhibition; method not described in this part)
# Type: binding
# Conditions: Table 2
# T1 sequence (Q00987 17-125): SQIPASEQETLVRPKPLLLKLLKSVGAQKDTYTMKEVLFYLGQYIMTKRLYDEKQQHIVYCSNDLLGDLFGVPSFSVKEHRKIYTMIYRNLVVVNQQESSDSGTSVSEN
row,SMILES,IC50 [µM]
1,"C[C@@H](Nc1nc(C(=O)O)nc2nc(-c3cnc(O)c(F)c3)n(Cc3ccc(C(F)(F)F)cc3)c12)C1CC1 [Example 2.51, 6-{[(1R)-1-cyclopropylethyl]amino}-8-(5-fluoro-6-hydroxypyridin-3-yl)-7-[4-(trifluoromethyl)benzyl]-7H-purine-2-carboxylic acid]",1.23
2,"Cc1ccc(-c2nc3nc(C(=O)O)nc(N[C@H](C)C4CC4)c3n2Cc2ccc(C(F)(F)F)cc2)c(C)c1 [Example 2.52, 6-{[(1R)-1-cyclopropylethyl]amino}-8-(2,4-dimethylphenyl)-7-[4-(trifluoromethyl)benzyl]-7H-purine-2-carboxylic acid]",0.309
3,"C[C@@H](Nc1nc(C(=O)O)nc2nc(-c3ccc(Cl)c(F)c3)n(Cc3ccc(C(F)(F)F)cc3)c12)C1CC1 [Example 2.53, 8-(4-chloro-3-fluorophenyl)-6-{[(1R)-1-cyclopropylethyl]amino}-7-[4-(trifluoromethyl)benzyl]-7H-purine-2-carboxylic acid]",0.2
4,"Cc1cc(OC(F)(F)F)ccc1-c1nc2nc(C(=O)O)nc(N[C@H](C)C3CC3)c2n1Cc1ccc(C(F)(F)F)cc1 [Example 2.54, 6-{[(1R)-1-cyclopropylethyl]amino}-8-[2-methyl-4-(trifluoromethoxy)phenyl]-7-[4-(trifluoromethyl)benzyl]-7H-purine-2-carboxylic acid]",0.826
5,"C[C@@H](Nc1nc(C(=O)O)nc2nc(-c3ccccc3Cl)n(Cc3ccc(C(F)(F)F)cc3)c12)C1CC1 [Example 2.55, 8-(2-chlorophenyl)-6-{[(1R)-1-cyclopropylethyl]amino}-7-[4-(trifluoromethyl)benzyl]-7H-purine-2-carboxylic acid]",0.0983
6,"C[C@@H](Nc1nc(C(=O)O)nc2nc(-c3cccc(F)c3)n(Cc3ccc(C(F)(F)F)cc3)c12)C1CC1 [Example 2.56, 6-{[(1R)-1-cyclopropylethyl]amino}-8-(3-fluorophenyl)-7-[4-(trifluoromethyl)benzyl]-7H-purine-2-carboxylic acid]",0.261
7,"C[C@@H](Nc1nc(C(=O)O)nc2nc(-c3ccc(C#N)cc3)n(Cc3ccc(C(F)(F)F)cc3)c12)C1CC1 [Example 2.57, 8-(4-cyanophenyl)-6-{[(1R)-1-cyclopropylethyl]amino}-7-[4-(trifluoromethyl)benzyl]-7H-purine-2-carboxylic acid]",0.432
8,"C[C@@H](Nc1nc(C(=O)O)nc2nc(-c3ccc(Cl)cc3Cl)n(Cc3ccc(C(F)(F)F)cc3)c12)C1CC1 [Example 2.58, 6-{[(1R)-1-cyclopropylethyl]amino}-8-(2,4-dichlorophenyl)-7-[4-(trifluoromethyl)benzyl]-7H-purine-2-carboxylic acid]",0.213
9,"Cc1cccc(-c2nc3nc(C(=O)O)nc(N[C@H](C)C4CC4)c3n2Cc2ccc(C(F)(F)F)cc2)c1C [Example 2.59, 6-{[(1R)-1-cyclopropylethyl]amino}-8-(2,3-dimethylphenyl)-7-[4-(trifluoromethyl)benzyl]-7H-purine-2-carboxylic acid]",0.147
10,"C[C@@H](Nc1nc(C(=O)O)nc2nc(-c3ccc4ccccc4c3)n(Cc3ccc(C(F)(F)F)cc3)c12)C1CC1 [Example 2.60, 6-{[(1R)-1-cyclopropylethyl]amino}-8-naphthalen-2-yl-7-[4-(trifluoromethyl)benzyl]-7H-purine-2-carboxylic acid]",0.306
11,"C[C@@H](Nc1nc(C(=O)O)nc2nc(-c3ccc(F)c(Cl)c3)n(Cc3ccc(C(F)(F)F)cc3)c12)C1CCC1 [Example 2.61, 8-(3-chloro-4-fluorophenyl)-6-{ [(1R)-1-cyclobutylethyl]amino}-7-[4-(trifluoromethyl)benzyl]-7H-purine-2-carboxylic acid]",0.0227
12,"Cc1cccc(C)c1-c1nc2nc(C(=O)O)nc(N[C@H](C)C3CC3)c2n1Cc1ccc(C(F)(F)F)cc1 [Example 2.62, 6-{[(1R)-1-cyclopropylethyl]amino}-8-(2,6-dimethylphenyl)-7-[4-(trifluoromethyl)benzyl]-7H-purine-2-carboxylic acid]",0.0656
13,"C[C@@H](Nc1nc(C(=O)O)nc2nc(-c3cc(Cl)ccc3Cl)n(Cc3ccc(C(F)(F)F)cc3)c12)C1CCC1 [Example 2.63, 6-{[(1R)-1-cyclobutylethyl]amino}-8-(2,5-dichlorophenyl)-7-[4-(trifluoromethyl)benzyl]-7H-purine-2-carboxylic acid]",0.0109
14,"COc1cc(C#N)cc(-c2nc3nc(C(=O)O)nc(N[C@H](C)C4CCC4)c3n2Cc2ccc(C(F)(F)F)cc2)c1 [Example 2.64, 8-(3-cyano-5-methoxyphenyl)-6-{[(1R)-1-cyclobutylethyl]amino}-7-[4-(trifluoromethyl)benzyl]-7H-purine-2-carboxylic acid]",0.0891
15,"Cc1cccc(-c2nc3nc(C(=O)O)nc(N[C@H](C)C4CC4)c3n2Cc2ccc(C(F)(F)F)cc2)c1F [Example 2.65, 6-{[(1R)-1-cyclopropylethyl]amino}-8-(2-fluoro-3-methylphenyl)-7-[4-(trifluoromethyl)benzyl]-7H-purine-2-carboxylic acid]",0.182
16,"COc1ccc(-c2nc3nc(C(=O)O)nc(N[C@H](C)C4CC4)c3n2Cc2ccc(C(F)(F)F)cc2)cc1Cl [Example 2.66, 8-(3-chloro-4-methoxyphenyl)-6-{[(1R)-1-cyclopropylethyl]amino}-7-[4-(trifluoromethyl)benzyl]-7H-purine-2-carboxylic acid]",0.112
17,"C[C@@H](Nc1nc(C(=O)O)nc2nc(-c3cccc(OC(F)F)c3)n(Cc3ccc(C(F)(F)F)cc3)c12)C1CCC1 [Example 2.67, 6-{[(1R)-1-cyclobutylethyl]amino}-8-[3-(difluoromethoxy)phenyl]-7-[4-(trifluoromethyl)benzyl]-7H-purine-2-carboxylic acid]",0.0417
18,"C[C@@H](Nc1nc(C(=O)O)nc2nc(-c3ccc(F)cc3F)n(Cc3ccc(C(F)(F)F)cc3)c12)C1CCC1 [Example 2.68, 6-{[(1R)-1-cyclobutylethyl]amino}-8-(2,4-difluorophenyl)-7-[4-(trifluoromethyl)benzyl]-7H-purine-2-carboxylic acid]",0.0224
19,"C[C@@H](Nc1nc(C(=O)O)nc2nc(-c3ccc4ncccc4c3)n(Cc3ccc(C(F)(F)F)cc3)c12)C1CC1 [Example 2.69, 6-{[(1R)-1-cyclopropylethyl]amino}-8-quinolin-6-yl-7-[4-(trifluoromethyl)benzyl]-7H-purine-2-carboxylic acid]",0.296
20,"C[C@@H](Nc1nc(C(=O)O)nc2nc(-c3cnc(N(C)C)nc3)n(Cc3ccc(C(F)(F)F)cc3)c12)C1CC1 [Example 2.70, 6-{[(1R)-1-cyclopropylethyl]amino}-8-[2-(dimethylamino)pyrimidin-5-yl]-7-[4-(trifluoromethyl)benzyl]-7H-purine-2-carboxylic acid]",1.02
21,"COc1cc(-c2nc3nc(C(=O)O)nc(N[C@H](C)C4CC4)c3n2Cc2ccc(C(F)(F)F)cc2)ccn1 [Example 2.71, 6-{[(1R)-1-cyclopropylethyl]amino}-8-(2-methoxypyridin-4-yl)-7-[4-(trifluoromethyl)benzyl]-7H-purine-2-carboxylic acid]",0.589
22,"CCOc1ccc(-c2nc3nc(C(=O)O)nc(N[C@H](C)C4CC4)c3n2Cc2ccc(C(F)(F)F)cc2)cn1 [Example 2.72, 6-{[(1R)-1-cyclopropylethyl]amino}-8-(6-ethoxypyridin-3-yl)-7-[4-(trifluoromethyl)benzyl]-7H-purine-2-carboxylic acid]",0.613
23,"C[C@@H](Nc1nc(C(=O)O)nc2nc(-c3cccc(F)c3F)n(Cc3ccc(C(F)(F)F)cc3)c12)C1CC1 [Example 2.73, 6-{[(1R)-1-cyclopropylethyl]amino}-8-(2,3-difluorophenyl)-7-[4-(trifluoromethyl)benzyl]-7H-purine-2-carboxylic acid]",0.111
24,"C[C@@H](Nc1nc(C(=O)O)nc2nc(-c3ccc4c(c3)CCC4)n(Cc3ccc(C(F)(F)F)cc3)c12)C1CC1 [Example 2.74, 6-{[(1R)-1-cyclopropylethyl]amino}-8-(2,3-dihydro-1H-inden-5-yl)-7-[4-(trifluoromethyl)benzyl]-7H-purine-2-carboxylic acid]",0.205
25,"C[C@@H](Nc1nc(C(=O)O)nc2nc(-c3ccc(Br)cc3F)n(Cc3ccc(C(F)(F)F)cc3)c12)C1CC1 [Example 2.75, 8-(4-bromo-2-fluorophenyl)-6-{[(1R)-1-cyclopropylethyl]amino}-7-[4-(trifluoromethyl)benzyl]-7H-purine-2-carboxylic acid]",0.204
26,"C[C@@H](Nc1nc(C(=O)O)nc2nc(-c3ccc(Cl)c(Cl)c3)n(Cc3ccc(C(F)(F)F)cc3)c12)C1CCC1 [Example 2.76, 6-{[(1R)-1-cyclobutylethyl]amino}-8-(3,4-dichlorophenyl)-7-[4-(trifluoromethyl)benzyl]-7H-purine-2-carboxylic acid]",0.0204
27,"C[C@@H](Nc1nc(C(=O)O)nc2nc(-c3ccncc3)n(Cc3ccc(C(F)(F)F)cc3)c12)C1CCC1 [Example 2.77, 6-{[(1R)-1-cyclobutylethyl]amino}-8-pyridin-4-yl-7-[4-(trifluoromethyl)benzyl]-7H-purine-2-carboxylic acid]",0.0726
28,"C[C@@H](Nc1nc(C(=O)O)nc2nc(-c3ccccc3C(N)=O)n(Cc3ccc(C(F)(F)F)cc3)c12)C1CC1 [Example 2.78, 8-(2-carbamoylphenyl)-6-{[(1R)-1-cyclopropylethyl]amino}-7-[4-(trifluoromethyl)benzyl]-7H-purine-2-carboxylic acid]",0.219
29,"C[C@@H](Nc1nc(C(=O)O)nc2nc(-c3ccccc3C(F)(F)F)n(Cc3ccc(C(F)(F)F)cc3)c12)C1CCC1 [Example 2.79, 6-{[(1R)-1-cyclobutylethyl]amino}-7-[4-(trifluoromethyl)benzyl]-8-[2-(trifluoromethyl)phenyl]-7H-purine-2-carboxylic acid]",0.0134
30,"CCc1ccc(OC)cc1-c1nc2nc(C(=O)O)nc(N[C@H](C)C3CCC3)c2n1Cc1ccc(C(F)(F)F)cc1 [Example 2.80, 6-{[(1R)-1-cyclobutylethyl]amino} -8-(2-ethyl-5-methoxyphenyl)-7-[4-(trifluoromethyl)benzyl]-7H-purine-2-carboxylic acid]",0.0111
